Measurements reported in patent US6752986B2, “Composition and methods for affecting metallocorrinoid uptake” (The Cleveland Clinic Foundation, priority 2001, dated 2004).

Tests used:
[1] = system: NCTC929; conditions: NCTC929, high levels of Cbl; cited from earlier work
[2] = system: CCRF-CEM; conditions: high levels of Cbl; cited from earlier work
[3] = system: P388D1; conditions: P388D1, high levels of Cbl; cited from earlier work
[4] = system: L1210; conditions: L1210, high levels of Cbl; cited from earlier work
[5] = system: subcutaneous NIH-OVCAR-3 tumors; experiment: Intraperitoneal NO-Cbl treatment of established subcutaneous NIH-OVCAR-3 tumors; assay type: in vivo, nude mice
[6] = system: NIH-OVCAR-3 ovarian carcinoma; experiment: SRB anti-proliferative cell survival assay, NIH-OVCAR-3; assay type: cell-based, human; conditions: concentration used in the Annexin V assay for 48 hrs
[7] = system: five human hematological and eight solid tumor cell lines; conditions: cited from earlier work
[8] = system: WM9 human melanoma; experiment: SRB anti-proliferative cell survival assay, WM9; assay type: cell-based; conditions: WM9 versus NIH-OVCAR-3
Description: WM9 human melanoma was evaluated after 4 days growth.
Cells (2×10^3) were seeded in 96-well plates. Data points represent mean of eight replicates. (n=8). A control plate was fixed 4 hr after seeding (to allow cells to attach) to determine the initial seeding density (Aini). This was defined as 0% growth. To the wells of the seeded experimental plate, IFN-β was added and incubation continued for 3-5 days. Untreated cell controls were included. Growth obtained with this control was defined as 100% (Afin). To determine cell number, cells were fixed with 10% trichloroacetic acid at 4° C. for 1 h. They were stained with 0.4% sulforhodamine B prepared in 1% acetic acid at 25° C. for 1 h (27). The wells were washed with 1% acetic acid. Bound dye was eluted with 100 μl of 10 mM Tris-HCl, ph 10.5 and quantitated in a microplate reader at 570 nm. Growth in IFN-β-treated wells (experimental=exp) was expressed as a percentage of untreated control growth (mean±SEM).
%Control growth=100%×(Aexp−Aini)/(Afin−Aini)
%STD=100%×(STDexp/(Afin−Aini))
%SEM=100%×(SEMexp/(Afin−Aini) ) where SEM=STD/✓n

Compound	cell proliferation [1]	cell proliferation [2]	cell proliferation [3]	cell proliferation [4]	mean volume of untreated tumors compared to NO-Cbl treated tumors ([5]; at the end of the study)	decrease in volume of treated tumors ([5]; during the treatment period)	tumor response ([5]; intraperitoneal NO-Cbl, established subcutaneous NIH-OVCAR-3 tumors)	ID25 [6]	ID50 lower in tumor cell lines compared to benign cells (fibroblasts and endothelial cells) [7]	ID50 of WM9 cells compared to NIH-OVCAR-3 [8]
C/C1=C2/[N-][C@H]([C@H](CC(N)=O)[C@@]2(C)CCC(=O)NC[C@@H](C)OP(=O)([O-])O[C@H]2[C@@H](O)[C@@H](n3cnc4cc(C)c(C)cc43)O[C@@H]2CO)[C@]2(C)N=C(/C(C)=C3N=C(/C=C4N=C1[C@@H](CCC(N)=O)C\4(C)C)[C@@H](CCC(N)=O)[C@]\3(C)CC(N)=O)[C@@H](CCC(N)=O)[C@]2(C)CC(N)=O.[Co] [Cbl, cobalamin]	inhibited	inhibited	inhibited	inhibited						
Nitrosylcobalamin [NO-Cbl]					18 fold	4 fold	tumor regression	10 µM	5-100 fold	higher ID50
